Source: article PMC7413516, “Antidepressant-like activity and safety profile evaluation of 1H-imidazo[2,1-f]purine-2,4(3H,8H)-dione derivatives as 5-HT1A receptor partial agonists” (PLoS ONE, 2020)
Values joined by “and” are separate entries in the source; they are usually repeats but may differ in a detail not shown here. Identical values can stand only once. Marks after values point to notes of the source that are not given here.

Tests used:
human serotonin 5-HT1AR = molecular target: T1, human serotonin 5-HT1AR (Homo sapiens, UniProt P08908); design: host or cells: CHO-K1; method as in Pytka et al. [14]; conditions: cAMP, CHO-K1 cells; ref Pytka et al. [14]; cited from earlier work
T1 sequence (P08908 1-422): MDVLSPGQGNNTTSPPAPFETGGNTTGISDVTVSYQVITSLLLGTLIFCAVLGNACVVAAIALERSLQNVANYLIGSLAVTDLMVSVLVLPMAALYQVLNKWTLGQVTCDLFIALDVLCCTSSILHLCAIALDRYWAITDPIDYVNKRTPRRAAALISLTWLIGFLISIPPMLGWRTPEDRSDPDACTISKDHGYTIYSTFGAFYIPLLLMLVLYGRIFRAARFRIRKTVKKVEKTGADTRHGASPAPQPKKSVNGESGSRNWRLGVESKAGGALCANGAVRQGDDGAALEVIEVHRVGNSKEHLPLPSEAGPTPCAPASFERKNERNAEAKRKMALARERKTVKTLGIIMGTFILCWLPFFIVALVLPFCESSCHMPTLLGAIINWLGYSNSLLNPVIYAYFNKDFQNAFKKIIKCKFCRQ

[1] = molecular target: T2, human serotonin 5-HT1A receptor (Homo sapiens, UniProt P08908); design: host or cells: CHO-K1; method as in Pytka et al. [14]; conditions: pERK1/2, CHO-K1 cells; ref Pytka et al. [14]; cited from earlier work
T2 sequence (P08908 1-422): T1 sequence (P08908 1-422)

human 5-HT1AR = molecular target: T3, human 5-HT1AR (Homo sapiens, UniProt P08908); design: TEV protease site; Gal4-VP16 transcription factor; host or cells: U2OS (Tango GPCR-bla U2OS parental line); method as in Pytka et al. [14]; conditions: β-arrestin, U2OS cells; ref Pytka et al. [14]; cited from earlier work
T3 sequence (P08908 1-422): T1 sequence (P08908 1-422)

mice [2] = experiment: Forced swim test (FST) in mice; type: in vivo, Swiss albino mice; conditions: given alone, 0.3 mg/kg s.c., 45 min before test
Excerpt: (§1) The investigated compounds AZ-853 (8-(4-(4-(2-fluorophenyl)piperazin-1-yl)butyl)-1,3-dimethyl-1H-imidazo[2,1-f]purine-2,4(3H,8H)-dione and AZ-861 (1,3-dimethyl-8-(4-(4-(3-(trifluoromethyl)phenyl)piperazin-1-yl)butyl)-1H-imidazo[2,1-f]purine-2,4(3H,8H)-dione) were synthesised in the Department of Medicinal Chemistry, Faculty of Pharmacy, Jagiellonian University, and their synthesis was described earlier. AZ-853 and AZ-861 were suspended in 1% aqueous solution of Tween 80, and WAY-100635 (Sigma, Germany) was dissolved in 0.9% saline. In acute experiments, the selected compounds AZ-853 (0.156–2.5 mg/kg) and AZ-861 (0.625–2.5 mg/kg) were injected i.p. once 60 min before tests, whereas WAY-100635 (0.3 mg/kg) was administered subcutaneously (s.c.) 45 min before the test. […] In chronic experiments, AZ-853 and AZ-861 were administered i.p. once a day (between 9:00 AM and 10:00 AM) for 16 consecutive days at the minimum active doses selected from FST experiment, i.e. 0.625 and 1.25 mg/kg, respectively. All compounds were administered to mice at a volume of 10 ml/kg and to rats at a volume of 2 ml/kg. The control groups received 1% aqueous solution of Tween 80.
The experiment was carried out according to the method of Porsolt et al.. Swiss albino mice were individually placed in a glass cylinder (25 cm high; 10 cm in diameter) containing 10 cm of water maintained at 23–25°C, and were left there for 6 min. The total duration of immobility was recorded during the last 4 min of a 6-min. A mouse was regarded as immobile when it remained floating on the water, making only small movements to keep its head above it.
(§2) The Swiss albino mice were used in the experiment. AZ-853 and AZ-861 were injected once daily for 16 consecutive days. On the 1st and 15th day the administration of the compounds, 18-h spontaneous animal activity was registered (see below). FST, as described earlier, was performed on the 14th day just before the next treatment. To ensure that the effects observed in FST are not the result of increased motility of animals, on the 13th day, just before the next administration, the locomotor activity was measured as described earlier, from 2 to 6 min after test start, i.e. in the period identical to the duration of FST. Blood and organ collection was performed on the 17th day at 24 h after the last dose and fasting.

mice [3] = experiment: Locomotor activity (Opto M3 activity monitor) in mice; type: in vivo, Swiss albino mice
Excerpt: as §1, with “[…].” for “All compounds were administered to mice at a volume of 10 ml/kg and to rats at a volume of 2 ml/kg.”
Locomotor activity was recorded with an Opto M3 multi-channel activity monitor (MultiDevice Software v.1.3, Columbus Instruments). The Swiss albino mice were individually placed in plastic cages (220 × 120 × 130 mm) for 30 min habituation period, and then the crossings of each channel (ambulation) were counted from […] to 6 min, that is the time equal to the observation period in FST. The cages were cleaned up with 70% ethanol after each mouse.
as §2, with “[…].” for “On the 1st and 15th day the administration of the compounds, 18-h spontaneous animal activity was registered (see below).”

Row | Structure (SMILES) | Emax (%) ± SEM, agonist mode (human serotonin 5-HT1AR) | Emax (%) ± SEM, agonist mode [1] | Emax (%) ± SEM, agonist mode (human 5-HT1AR) | effect on immobility in FST (mice [2]) | effect on spontaneous locomotor activity, acute administration (mice [3]; 4 min period identical to FST, AZ-853 0.625, 1.25, 2.5 mg/kg, AZ-861 1.25 mg/kg, WAY-100635 0.3 mg/kg alone or combined) | Number of movements (individual animals) (mice [3]; acute, WAY-100635 0.3 mg/kg alone, 3 to 6 min, raw data, 0.3 mg/kg) | Number of movements (mean) (mice [3]; acute, WAY-100635 alone 0.3 mg/kg s.c., 3 to 6 min)
1 | COc1ccccc1N1CCN(CC(C(=O)NC(C)(C)C)c2ccccc2)CC1 (stereo not shown) [WAY-100135] | 2±0.5^c % | 2±1.0^c % | 1±0.5^c % | – | – | – | –
2 | COc1ccccc1N1CCN(CCN(C(=O)C2CCCCC2)c2ccccn2)CC1 [WAY-100635, reference compound] | – | – | – | had no effect on immobility | did not change the locomotor activity | 130 and 88 and 93 and 242 and 100 and 107 | 122.9
